In one test the target is T1, b-Raf (V600E) (Homo sapiens, UniProt P15056, V600E).
T1 construct: made in house
The experiment in a line: In vitro Raf activity determination (Alpha Screen, biotinylated kinase-dead MEK1 substrate), B-Raf. The format is biochemical. The settings on record: b-Raf (V600E) approximately 4 pM; ATP 10 μM; pre-incubation 60 minutes; reaction 3 hours at room temperature. Put shortly: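 Activated b-Raf(V600E) (~4 pM) pre-incubated 60 min with compound and biotinylated kinase-dead (K97R) MEK1 (~10 nM), then reacted 3 h at room temperature with 10 μM ATP in 50 mM Tris pH 7.5, 15 mM MgCl2, 0.01% BSA, 1 mM DTT. Phospho-MEK detected by AlphaScreen; IC50 by non-linear regression.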

The target in the next test is T2, C-RAF (Homo sapiens, UniProt P04049, Y340E/Y341E).
T2 construct: His tag (implied by nickel chromatography) (cleaved yes); StrepII tag (cleaved yes); made in house; host or cells: Sf9 insect cells (baculovirus), CRAF and h14-3-3 zeta co-expressed; MEK1 substrate from E. coli
T2 sequence (P04049 whole entry Y340E/Y341E): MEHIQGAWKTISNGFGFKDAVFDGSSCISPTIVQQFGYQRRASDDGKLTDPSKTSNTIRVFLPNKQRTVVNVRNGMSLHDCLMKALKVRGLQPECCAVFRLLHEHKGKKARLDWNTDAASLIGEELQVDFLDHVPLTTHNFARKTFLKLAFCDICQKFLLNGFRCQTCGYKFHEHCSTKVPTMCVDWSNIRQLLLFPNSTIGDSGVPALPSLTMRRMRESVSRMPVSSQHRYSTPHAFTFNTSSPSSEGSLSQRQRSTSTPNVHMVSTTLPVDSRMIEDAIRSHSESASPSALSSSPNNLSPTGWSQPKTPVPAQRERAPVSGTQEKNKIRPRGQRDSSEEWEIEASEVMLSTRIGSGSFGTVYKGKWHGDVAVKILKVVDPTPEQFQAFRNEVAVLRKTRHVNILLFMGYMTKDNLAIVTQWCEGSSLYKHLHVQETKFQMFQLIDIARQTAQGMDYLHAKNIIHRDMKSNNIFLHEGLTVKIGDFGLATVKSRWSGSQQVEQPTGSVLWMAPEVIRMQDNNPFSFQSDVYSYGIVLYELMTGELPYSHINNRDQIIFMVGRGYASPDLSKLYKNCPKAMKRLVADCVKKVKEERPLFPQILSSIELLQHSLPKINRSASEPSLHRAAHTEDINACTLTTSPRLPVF
T2 sequence (P63104 whole entry partner): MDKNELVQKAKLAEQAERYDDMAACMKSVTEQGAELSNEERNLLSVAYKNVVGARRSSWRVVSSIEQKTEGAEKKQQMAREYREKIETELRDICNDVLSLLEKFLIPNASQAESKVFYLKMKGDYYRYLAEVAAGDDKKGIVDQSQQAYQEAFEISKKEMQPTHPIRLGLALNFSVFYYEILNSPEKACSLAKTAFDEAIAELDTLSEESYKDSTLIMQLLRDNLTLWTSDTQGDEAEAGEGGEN
As to the kind of experiment: In vitro Raf activity determination (Alpha Screen, biotinylated kinase-dead MEK1 substrate), C-Raf. Format: biochemical. The settings on record: c-Raf approximately 4 nM; ATP 1 μM; pre-incubation 60 minutes; reaction 1 hour at room temperature. Put shortly:
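Full-length C-Raf carrying Y340E/Y341E, co-expressed with 14-3-3ζ in Sf9 cells, at approximately 4 nM, with approximately 10 nM biotinylated kinase-dead MEK1 (K97R) and 1 μM ATP, pH 7.5. Compound preincubated 60 min, reaction 1 hour at room temperature. Phospho-MEK read by AlphaScreen; IC50 by non-linear regression.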

T1 sequence (P15056 whole entry V600E): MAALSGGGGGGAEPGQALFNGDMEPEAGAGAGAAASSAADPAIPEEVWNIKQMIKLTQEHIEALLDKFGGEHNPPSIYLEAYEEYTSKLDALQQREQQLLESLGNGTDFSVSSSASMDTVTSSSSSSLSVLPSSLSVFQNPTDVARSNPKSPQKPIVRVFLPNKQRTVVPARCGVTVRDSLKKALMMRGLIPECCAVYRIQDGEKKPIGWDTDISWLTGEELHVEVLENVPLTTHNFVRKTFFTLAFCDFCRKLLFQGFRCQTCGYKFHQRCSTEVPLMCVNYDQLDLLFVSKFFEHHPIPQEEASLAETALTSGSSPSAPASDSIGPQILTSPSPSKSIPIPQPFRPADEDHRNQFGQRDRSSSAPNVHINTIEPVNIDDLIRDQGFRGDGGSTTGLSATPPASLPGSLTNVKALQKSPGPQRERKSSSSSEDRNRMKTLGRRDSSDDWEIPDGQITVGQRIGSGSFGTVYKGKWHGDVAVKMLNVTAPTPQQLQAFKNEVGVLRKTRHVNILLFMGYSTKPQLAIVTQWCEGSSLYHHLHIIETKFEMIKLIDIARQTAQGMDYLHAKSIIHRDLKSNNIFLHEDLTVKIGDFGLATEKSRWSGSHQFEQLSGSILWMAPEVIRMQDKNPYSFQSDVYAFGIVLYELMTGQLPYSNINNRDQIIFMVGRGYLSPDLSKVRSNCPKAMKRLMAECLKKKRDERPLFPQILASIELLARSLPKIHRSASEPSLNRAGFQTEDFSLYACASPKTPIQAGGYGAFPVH

The IC50 is the point on the concentration scale where inhibition reaches its midpoint. Low readings indicate inhibition by little substance, high ones a need for much substance. For `COCCNc1ncc(-c2cc(NC(=O)c3ccnc(C(C)(C)O)c3)cnc2C)cc1C#N` [Example 210, N-(5′-cyano-6′-((2-methoxyethyl)amino)-2-methyl-[3,3′-bipyridin]-5-yl)-2-(2-hydroxypropan-2-yl)isonicotinamide], the IC50 against b-Raf (V600E) amounted to 36 nM; against C-RAF it was 5.97 nM.
For `Cc1ccc(NC(=O)c2ccnc(C3(C#N)CC3)c2)cc1-c1cnc(N2CCNCC2)c(C#N)c1` [Example 145, N-(3-(5-cyano-6-(piperazin-1-yl)pyridin-3-yl)-4-methylphenyl)-2-(1-cyanocyclopropyl) isonicotinamide] the same measures were 0.56 nM and 0.148 nM.
On to `Cc1ccc(NC(=O)c2cc(C(C)C)on2)cc1-c1cnc(N(C)C)c(C#N)c1` [Example 258, N-(3-(5-cyano-6-(dimethylamino)pyridin-3-yl)-4-methylphenyl)-5-isopropylisoxazole-3-carboxamide], for which the IC50 against b-Raf (V600E) was 1.18 nM; at C-RAF, 0.158 nM.
On to `COCCNc1ncc(-c2cc(NC(=O)c3cnnc(C(C)(C)C#N)c3)cnc2C)cc1C#N` [Example 202, N-(5′-cyano-6′-((2-methoxyethyl)amino)-2-methyl-[3,3′-bipyridin]-5-yl)-6-(2-cyanopropan-2-yl)pyridazine-4-carboxamide], for which the figures for the IC50 at b-Raf (V600E) and against C-RAF were 32.6 nM and 4.82 nM, respectively.
Take `Cc1ccc(NC(=O)c2ccnc(C(C)(C)C#N)c2)cc1-c1cnc(-c2cnn(C)c2)c(C#N)c1` [Example 125, N-(3-(5-cyano-6-(1-methyl-1H-pyrazol-4-yl)pyridin-3-yl)-4-methylphenyl)-2-(2-cyanopropan-2-yl)isonicotinamide]: the IC50 is 1.46 nM against b-Raf (V600E) and 0.254 nM on C-RAF.
As for `Cc1ncc(NC(=O)c2cnnc(C3CC3)c2)cc1-c1cnc(N2CC(C)(O)C2)c(C#N)c1` [Example 190, N-(5′-cyano-6′-(3-hydroxy-3-methylazetidin-1-yl)-2-methyl-[3,3′-bipyridin]-5-yl)-6-cyclopropyl-pyridazine-4-carboxamide], the figures for the IC50 against b-Raf (V600E) and on C-RAF were 178 nM and 29.1 nM, respectively.
With `Cc1ccc(NC(=O)c2cc(C(C)(F)F)ccn2)cc1-c1cnc(N2CC(C)(O)C2)c(C#N)c1` [Example 240, N-(3-(5-cyano-6-(3-hydroxy-3-methylazetidin-1-yl)pyridin-3-yl)-4-methylphenyl)-4-(1,1-difluoroethyl) picolinamide], the results for the IC50 against b-Raf (V600E) and at C-RAF were 3.51 nM and 0.519 nM, respectively.
Turning to `Cc1ccc(NC(=O)c2cc(C(C)(C)F)ccn2)cc1-c1cnc(N2CC(C)(O)C2)c(C#N)c1` [Example 244, N-(3-(5-cyano-6-(3-hydroxy-3-methylazetidin-1-yl)pyridin-3-yl)-4-methylphenyl)-4-(2-fluoropropan-2-yl)picolinamide], the IC50 on b-Raf (V600E) came out at 7.18 nM; against C-RAF, 0.876 nM.
For `Cc1ncc(NC(=O)c2ccnc(C(C)(C)C#N)c2)cc1-c1cnc(Oc2ccccn2)c(C#N)c1` [Example 54, N-(5′-cyano-2-methyl-6′-(pyridin-2-yloxy)-[3,3′-bipyridin]-5-yl)-2-(2-cyanopropan-2-yl)isonicotinamide], the IC50 amounted to 34.7 nM on b-Raf (V600E) and 7.88 nM on C-RAF.
Consider `Cc1ccc(NC(=O)c2cn(C)nc2C)cc1-c1cnc(N(C)C)c(C#N)c1` [Example 252, N-(3-(5-cyano-6-(dimethylamino)pyridin-3-yl)-4-methylphenyl)-1,3-dimethyl-1H-pyrazole-4-carboxamide], for which the IC50 at b-Raf (V600E) is 196 nM; against C-RAF, 17.6 nM.
For the compound `Cc1ccc(NC(=O)c2ccnc(C3(C#N)CC3)c2)cc1-c1cnc(N2CCOCC2)c(C#N)c1` [Example 147, N-(3-(5-cyano-6-morpholinopyridin-3-yl)-4-methylphenyl)-2-(1-cyanocyclopropyl) isonicotinamide], the IC50 at b-Raf (V600E) turned out to be 0.503 nM; against C-RAF, 0.116 nM.
`Cc1ncc(NC(=O)c2ccnc(C(C)(C)C#N)c2)cc1-c1cnc(N2C[C@H]3C[C@@H]2CO3)c(C#N)c1` [Example 90, N-(6′-((1R,4R)-2-oxa-5-azabicyclo[2.2.1]heptan-5-yl)-5′-cyano-2-methyl-[3,3′-bipyridin]-5-yl)-2-(2-cyanopropan-2-yl)isonicotinamide]: the figures for the IC50 against b-Raf (V600E) and against C-RAF were 8.94 nM and 2.1 nM, respectively.
Regarding `Cc1ncc(NC(=O)c2ccnc(C(C)(C)C#N)c2)cc1-c1cnc(N2CCOC[C@H]2C)c(C#N)c1` [Example 79, (R)-N-(5′-cyano-2-methyl-6′-(3-methylmorpholino)-[3,3′-bipyridin]-5-yl)-2-(2-cyanopropan-2-yl)isonicotinamide], the concentration for half-maximal inhibition (IC50) amounted to 4.34 nM at b-Raf (V600E) and 1.51 nM against C-RAF.
On to `Cc1ccc(NC(=O)c2ccnc(C(F)F)c2)cc1-c1cnc(-c2cnn(C)c2)c(C#N)c1` [Example 126, N-(3-(5-cyano-6-(1-methyl-1H-pyrazol-4-yl)pyridin-3-yl)-4-methylphenyl)-2-(difluoromethyl) isonicotinamide], for which the IC50 against b-Raf (V600E) was determined as 0.304 nM; against C-RAF it was 0.0423 nM.
For `Cc1ncc(NC(=O)c2ccnc(C(C)(C)C#N)c2)cc1-c1cnc(N2CCC2)c(C#N)c1` [Example 76, N-(6′-(azetidin-1-yl)-5′-cyano-2-methyl-[3,3′-bipyridin]-5-yl)-2-(2-cyanopropan-2-yl)isonicotinamide], the values for the IC50 against b-Raf (V600E) and against C-RAF were 9.01 nM and 1.53 nM, respectively.
For `Cc1ccc(NC(=O)c2ccnc(C3CC3)c2)cc1-c1cnc(N2CCNCC2)c(C#N)c1` [Example 158, N-(3-(5-cyano-6-(piperazin-1-yl)pyridin-3-yl)-4-methylphenyl)-2-cyclopropyl isonicotinamide] the same measures were 1.09 nM and 0.199 nM.
As to `Cc1ncc(NC(=O)c2ccnc(C(C)(C)C#N)c2)cc1-c1cnc(N2[C@@H]3CC[C@H]2COC3)c(C#N)c1` [Example 91, N-(6′-((1R,5S)-3-oxa-8-azabicyclo[3.2.1]octan-8-yl)-5′-cyano-2-methyl-[3,3′-bipyridin]-5-yl)-2-(2-cyanopropan-2-yl)isonicotinamide], the values for the IC50 against b-Raf (V600E) and at C-RAF were 3.62 nM and 1.01 nM, respectively.
`Cc1ccc(NC(=O)c2ccnc(C(F)(F)F)c2)cc1-c1cnc(NC2CCOCC2)c(C#N)c1` [Example 61, N-(3-(5-cyano-6-((tetrahydro-2H-pyran-4-yl)amino)pyridin-3-yl)-4-methylphenyl)-2-(trifluoromethyl) isonicotinamide]: the IC50 was 0.509 nM on b-Raf (V600E) and 0.194 nM on C-RAF.
On to `Cc1ccc(NC(=O)c2ccnc(C(F)(F)F)c2)cc1-c1cnc(NC(C)C)c(C#N)c1` [Example 22, N-(3-(5-cyano-6-(isopropylamino)pyridin-3-yl)-4-methylphenyl)-2-(trifluoromethyl) isonicotinamide], for which the figures for the IC50 on b-Raf (V600E) and at C-RAF were 1.25 nM and 0.314 nM, respectively.
Turning to `Cc1ccc(NC(=O)c2ccnc(C(F)F)c2)cc1-c1cnc(NC2CCOCC2)c(C#N)c1` [Example 169, N-(3-(5-cyano-6-((tetrahydro-2H-pyran-4-yl)amino)pyridin-3-yl)-4-methylphenyl)-2-(difluoromethyl) isonicotinamide], the figures for the IC50 against b-Raf (V600E) and on C-RAF were 0.507 nM and 0.154 nM, respectively.
On to `Cc1ccc(NC(=O)c2cccc(S(C)(=O)=O)c2)cc1-c1cnc(N2CCNCC2)c(C#N)c1` [Example 159, N-(3-(5-cyano-6-(piperazin-1-yl)pyridin-3-yl)-4-methylphenyl)-3-(methylsulfonyl) benzamide], for which the figures for the IC50 at b-Raf (V600E) and at C-RAF were 1.49 nM and 0.197 nM, respectively.
Consider `Cc1ccc(NC(=O)c2ccnc(C(F)(F)F)c2)cc1-c1cnc(N(C)C)c(C#N)c1` [Example 25, N-(3-(5-cyano-6-(dimethylamino)pyridin-3-yl)-4-methylphenyl)-2-(trifluoromethyl) isonicotinamide], for which the IC50 against b-Raf (V600E) turned out to be 0.9 nM; at C-RAF, 0.127 nM.
Taken in the same sequence, the figures for `Cc1ccc(NC(=O)c2cccc(C(F)(F)F)c2)cc1-c1cc(C#N)c(N)nc1C` [Example 41, N-(3-(6-amino-5-cyano-2-methylpyridin-3-yl)-4-methylphenyl)-3-(trifluoromethyl) benzamide] were 16.4 nM and 1.08 nM.
Regarding `Cc1ccc(NC(=O)c2ccnc(C(C)(C)C#N)c2)cc1-c1cnc(N)c(C#N)c1C` [Example 9, N-(3-(6-amino-5-cyano-4-methylpyridin-3-yl)-4-methylphenyl)-2-(2-cyanopropan-2-yl)isonicotinamide], the figures for the IC50 on b-Raf (V600E) and at C-RAF were 60.8 nM and 6.55 nM, respectively.
Take `CNc1ncc(-c2cc(NC(=O)c3cccc(C(F)(F)F)c3)cnc2C)cc1C#N` [Example 8, N-(5′-cyano-2-methyl-6′-(methylamino)-[3,3′-bipyridin]-5-yl)-3-(trifluoromethyl) benzamide]: the IC50 was determined as 1.98 nM at b-Raf (V600E) and 0.25 nM on C-RAF.
For the compound `Cc1ncc(NC(=O)c2cc(C(C)(C)O)ccn2)cc1-c1cnc(N2CC(C)(O)C2)c(C#N)c1` [Example 235, N-(5′-cyano-6′-(3-hydroxy-3-methylazetidin-1-yl)-2-methyl-[3,3′-bipyridin]-5-yl)-4-(2-hydroxypropan-2-yl)picolinamide], the results for the half-inhibitory concentration (IC50) at b-Raf (V600E) and against C-RAF were 27.9 nM and 5.8 nM, respectively.

The values are drawn from patent publication US10392404B2, “Compounds and compositions as kinase inhibitors” (NOVARTIS AG, priority 2014, dated 2019).
